Values quoted from earlier work, collected in US12133911B2, “Formulations to achieve rapid dissolution of drug from spray-dried dispersions in capsules” (Capsugel Belgium NV, priority 2015, dated 2024).

Conditions: molality (moles of solute per unit mass) of a saturated solution in water

Row | Compound | Water Solub. [mol/kg]
1 | [Cl-].[K+] [KCl, potassium chloride] | 9.40
2 | O=C(CO)[C@@H](O)[C@H](O)[C@H](O)CO [fructose] | 3.89

Now from value to molecule:

Row | Water Solub. [mol/kg] | Compound
3 | 0.99 | OC[C@@H](O)[C@@H](O)[C@H](O)[C@H](O)CO [mannitol]
4 | 4.56 | OC[C@@H](O)[C@@H](O)[C@H](O)[C@@H](O)CO [sorbitol]
5 | 4.11 | OC[C@@H](O)[C@H](O)[C@@H](O)CO [xylitol]
